# What was measured:
# [1] = Determination of solubility; assay type: physicochemical; conditions: aqueous buffer at pH 7.4
# Description: Determination of Solubility
# Solubility of the compounds was determined by preparing a saturated solution of compound in 0.3 M phosphate buffer (pH 7.4±0.3) in a brown glass tube. The suspensions were rotated slowly for 24 hours. Aliquots were centrifuged for 10 minutes at 14.000 rpm and supernatants were diluted in 40% (v/v) acetonitrile in water prior to HPLC analysis. Concentrations of analytes were quantified against a standard curve and used as term of solubility. The HPLC-UV method used for the assessment of solubility is the same as used in the in vitro metabolism assay.
# [2] = system: Plasmodium falciparum 3D7; experiment: Plasmodium falciparum assay; assay type: cell-based; conditions: Plasmodium falciparum 3D7 (Table 2); read-out: IC50
# [3] = system: L. major promastigotes; experiment: Leishmania promastigote assay
# [4] = system: panel of 10 different non-fastidious bacteria; experiment: Screening against panel of non-fastidious bacteria
# [5] = Determination of metabolic stability (liver microsomes); assay type: in vitro ADME; conditions: rat liver microsomes, 20 μM, 15 min
# Description: Determination of Metabolic Stability
# Incubations were performed with Wistar rat liver microsomes (0.25 mg/ml) in 2% sodium bicarbonate solution. NADP (0.13 mg/ml), glucose-6-phosphate (0.63 mg/ml) and glucose-6-phosphate dehydrogenase (0.38 units/ml) were used as NADPH generation system and UDPGA (0.48 mg/ml) was added to include the phase II reaction, glucuronic acid conjugation, in the assay. After 5 minutes of pre-incubation the reaction was started by addition of the test article to give a final concentration of 20 μM. Samples were incubated for 15 min at 37° C. and the reactions were terminated by addition of equal volumes of acetonitrile. Blank incubations were performed at the same concentration but without addition of microsomes. Both blank and microsome-containing samples were made in replicats of three. Prior to analysis samples were centrifuged for 10 min. at 3500 rpm,HPLC system:
# Initial conditions were 40% mobile phase A (acetonitrile) and 60% mobile phase B (10 mM ammonium acetate pH 9.5). During the first 20 minutes, the mobile phase was changed via a linear gradient to 90% A and 10% B. This was followed by a 5 minutes linear gradient to initial conditions, which were maintained for 5 min. The flow rate was 0.20 m)/min and injection volume 10 μl.
# [6] = system: Eschericia coli ATCC25922; experiment: MIC determination in broth microdilution assay; conditions: for MIC: G: Eschericia coli ATCC25922
# [7] = system: Staphylococcus aureus ATCC33591(resistant to methicillin); experiment: MIC determination in broth microdilution assay; conditions: B: Staphylococcus aureus ATCC33591(resistant to methicillin)
# [8] = system: Enterococcus faecium #17501 (vancomycin-resistant clinical isolate); experiment: MIC determination in broth microdilution assay; conditions: E: Enterococcus faecium #17501 (vancomycin-resistant)
# [9] = system: Eschericia coli ESS; experiment: MIC determination in broth microdilution assay; conditions: for MIC: H: Eschericia coli ESS
# [10] = system: Staphylococcus aureus ATCC29213; experiment: MIC determination in broth microdilution assay; conditions: A: Staphylococcus aureus ATCC29213
# [11] = system: Enterococcus faecalis ATCC29212; experiment: MIC determination in broth microdilution assay; conditions: D: Enterococcus faecalis ATCC29212
# [12] = system: dihydroorotate dehydrogenase (DHODH); experiment: DHODH assay; assay type: biochemical; conditions: at 10 μM
# Description: 100 μl chalcone or 0.1 M Tris-HCl pH 8.0 is added to a well in a 96-wells microtiter plate. Then 50 μl enzyme dilution is added. The microtiter plate is placed in the Powerwavex340 and the enzymatic reactions starts when adding 100 μl assay mixture. The reaction are measured every 20 sec. for 10 min. The samples with chalcones are compared with the samples with 0.1 M Tris-HCl pH 8.0 and the percent inhibition is calculated.
# Enzyme dilution: The solution of recombinant purified enzyme is dissolved in 0.1 M Tris-HCl pH 8 to give an initial velocity of 0.04-0.05 ΔA/min.
# 2,6-dichlorophenolindophenol (DCIP)-stock solution: 40 mg DCIP and 10 ml 99% Ethanol are mixed for 10 min at RT. Then 100 μl 1.0 M Tris-HCl pH 8 and miliQ H2O are added to a final volume of 100 ml. The A600 of the DCIP-stock solution are measured in a microtiter plate on the Powerwavex340 (Bio-Tek instruments,Inc.)
# […]: 25 mM dihydroorotate stock-solution is prepared by first dissolving in the same amount of mol NaOH and then miliQ H2O is added to the final volume.
# Assay mix (10 ml solution): 600 μl of DHODH-stock solution and X ml (depending on the A600 value of stock-solution) DCIP to a final A600=2.5 are mixed. Then 0.1 M Tris-HCl pH 8.0 are added to a final volume of 10 ml.
# Preparation of compound soluton: A 10 mM stock-solution of compound (e.g. a chalcone derivative) is made in dimethylsulfoxid (DMSO). The compound is then diluted in 0.1 M Tris-HCl pH 8 to the test concentrations. The final DMSO concentration in the sample is 10%
# [13] = system: Bacteroides fragilis, Clostridium perfringens, Clostridium difficele; assay type: cell-based; conditions: single concentration of compound (100 μM)
smiles,measurement,setting,value
"COc1ccccc1-c1ccc(OCCN(C)C)c(/C=C/C(=O)c2ccccc2CN(C)C)c1 [Compound C036, (E)-3-[4-,(2-Dimethylamino-ethoxy)-2′-methoxy-biphenyl-3-yl]-1-(2-dimethylaminomethyl-phenyl)-propenone]",Solubility,[1],1800 µg/mL
same,IC50,[2],200 nM
"CN(C)CCOc1ccc(-c2ccccc2)cc1/C=C/C(=O)c1cccc(CN(C)C)c1 [Compound C037, (E)-3-[4-(2-Dimethylamino-ethoxy)-biphenyl-3-yl]-1-(3-dimethylaminomethyl-phenyl)-propenone]",Solubility,[1],1500 µg/mL
same,IC50,[3]; L. major,500 nM
same,potency against Gram-positive pathogens in comparison with Licochalcone A,[4],increased potency
"Cc1cc(C)cc(-c2ccc(OCCN(C)C)c(/C=C/C(=O)c3cccc(NCCN(C)C)c3)c2)c1 [Compound C075, (E)-3-[4-(2-Dimethylamino-ethoxy)-3′,5′-dimethyl-biphenyl-3-yl]-1-[3-(2-dimethylamino-ethylamino)-phenyl]-propenone]",Solubility,[1],4100 µg/mL
same,Metabolic turn-over in vitro,[5],8%
same,activity against E coli ATCC25922,[6],high activity
same,MIC,[6],9.4 µM
same,MIC,[7],4.7 µM
same,MIC,[8],9.4 µM
same,activity against ESS strain of E.coli,[9],high activity
same,MIC,[9],4.7 µM
same,IC50,[2],500 nM
same,MIC,[10],4.7 µM
same,MIC,[11],9.4 µM
"COc1ccc(C(=O)/C=C/c2cc(-c3ccccc3C)ccc2OCCN(C)C)cc1 [Compound C019, (E)-3-[4-(2-Dimethylamino-ethoxy)-2′-methyl-biphenyl-3-yl]-1-(4-methoxy-phenyl)-propenone]",Inhibition of DHODH,[12],18%
same,times more potent than LicA,"[3]; dose-respons curve at Leishmania Major, FIG. 5",100 times
"COc1ccc(C(=O)/C=C/c2cc(-c3ccccc3C)ccc2OCCN(C)C)c(Cl)c1 [Compound C022, (E)-1-(2-Chloro-4-methoxy-phenyl)-3-[4-(2-dimethylamino-ethoxy)-2′-methyl-biphenyl-3-yl]-propenone]",Inhibition of DHODH,[12],21%
"Cc1ccccc1-c1ccc(OCCN2CCCC2)c(/C=C/C(=O)c2ccccc2CN(C)C)c1 [Compound C136, (E)-1-(2-Dimethylaminomethyl-phenyl)-3-[2′-methyl-4-(2-pyrrolidin-1-yl-ethoxy)-biphenyl-3-yl]-propenone]",Solubility,[1],5500 µg/mL
"Cc1cc(C)cc(-c2ccc(OCCN(C)C)c(C=CC(=O)c3cccc(F)c3)c2)c1 [Compound C079, (E)-3-[4-(2-Dimethylamino-ethoxy)-3′,5′-dimethyl-biphenyl-3-y]-1-(3-fluoro-phenyl)-propenone]",activity against anaerobic bacteria,[13],activity against all microorganisms within the test panel
"Cc1ccccc1-c1ccc(OCCN(C)C)c(/C=C/C(=O)c2ccc(O)c(CN(C)C)c2)c1 [Compound C108, (E)-3-[4-(2-Dimethylamino-ethoxy)-2′-methyl-biphenyl-3-yl]-1-(3-dimethylaminomethyl-4-hydroxy-phenyl)-propenone]",Solubility,[1],18100 µg/mL
"COc1ccc(C(=O)/C=C/c2cc(-c3ccccc3C)ccc2OCCN(C)C)c(F)c1 [Compound C020, (E)-3-[4-(2-Dimethylamino-ethoxy)-2′-methyl-biphenyl-3-yl]-1-(2-fluoro-4-methoxy-phenyl)-propenone]",Inhibition of DHODH,[12],18%
same,IC50,[3]; L. major,30 nM
"COc1ccc(C(=O)/C=C/c2cc(-c3cc(C)cc(C)c3)ccc2OCCN(C)C)c(OC)c1OC [Compound C025, (E)-3-[4-(2-Dimethylamino-ethoxy)-3′,5′-dimethyl-biphenyl-3-yl]-1-(2,3,4-trimethoxy-phenyl)-propenone]",activity against anaerobic bacteria,[13],activity against all microorganisms within the test panel
"CN(C)CCOc1ccc(C(C)(C)C)cc1/C=C/C(=O)c1ccccc1NS(=O)(=O)c1ccccc1 [Compound C027, N-(2-{3-[5-tert-Butyl-2-(2-dimethylamino-ethoxy)-phenyl]-(E)-acryloyl}-phenyl)-benzenesulfonamide]",Inhibition of DHODH,[12],22%
"COc1ccc(C(=O)/C=C/c2cc(-c3ccccc3OC)ccc2OCCN(C)C)c(F)c1 [Compound C015, (E)-3-[4-(2-Dimethylamino-ethoxy)-2′-methoxy-biphenyl-3-yl]-1-(2-fluoro-4-methoxy-phenyl)-propenone]",IC50,[3]; L. major,100 nM
same,potency against Gram-positive pathogens in comparison with Licochalcone A,[4],increased potency
same,activity against anaerobic bacteria,[13],activity against all microorganisms within the test panel
"CN(C)CCCOc1ccc(C(C)(C)C)cc1/C=C/C(=O)c1ccccc1NS(=O)(=O)c1ccccc1 [Compound C042, N-(2-{3-[5-tert-Butyl-2-(3-dimethylamino-propoxy)-phenyl]-(E)-acryloyl}-phenyl)-benzenesulfonamide]",IC50,[3]; Leishmania major,200 nM
same,potency against Gram-positive pathogens in comparison with Licochalcone A,[4],increased potency
same,activity against anaerobic bacteria,[13],activity against all microorganisms within the test panel
"Cc1ccccc1-c1ccc(OCCN(C)C)c(CCC(=O)c2ccccc2CN(C)C)c1 [Compound C073, 3-[4-(2-Dimethylamino-ethoxy)-2′-methyl-biphenyl-3-yl]-1-(2-dimethylaminomethyl-phenyl)-propan-1-one]",solubility at 24 h,"[1]; 0.3 M phosphate buffer, thermodynamic from solid",> 10000 µg/mL
"COc1ccc(C(=O)C=Cc2cc(-c3ccccc3Cl)ccc2OCCN(C)C)c(OC)c1OC [Compound C018, (E)-3-[2′-Chloro-4-(2-dimethylamino-ethoxy)-biphenyl-3-yl]-1-(2,3,4-trimethoxy-phenyl)-propenone]",Solubility,[1],1500 µg/mL
"COc1ccc(C(=O)/C=C/c2ccccc2)cc1 [4′MC, 4′-methoxy chalcone, reference compound]",Inhibition of DHODH,[12],7%
same,antibacterial effect,[4],no antibacterial effect at all
"Cc1cc(C)cc(-c2ccc(OCCN(C)C)c(/C=C/C(=O)c3ccccc3NCCN(C)C)c2)c1 [Compound C074, (E)-3-[4-(2-Dimethylamino-ethoxy)-3′,5′-dimethyl-biphenyl-3-yl]-1-[2-(2-dimethylamino-ethylamino)-phenyl]-propenone]",Metabolic turn-over in vitro,[5],7%
same,activity against E coli ATCC25922,[6],high activity
same,MIC,[6],9.4 µM
same,MIC,[7],9.4 µM
same,MIC,[8],9.4 µM
same,activity against ESS strain of E.coli,[9],high activity
same,MIC,[9],4.7 µM
same,activity against anaerobic bacteria,[13],activity against all microorganisms within the test panel
same,MIC,[10],9.4 µM
same,MIC,[11],9.4 µM

# Reference: patent US7423181B2, “Aminoalkoxy-functional chalcones” (Lica Pharmaceuticals A/S, priority 2002, dated 2008)
